Values of other authors in patent publication US20210330900A1, “TARGETED ADMINISTRATION TO THE OROPHARYNX OF VISCOUS OR DRY POWDER FLUTICASONE PROPIONATE AND RELATED CORTICOSTEROIDS FOR THE TREATMENT OF EOSINOPHILIC ESOPHAGITIS (EoE)” (Topical Sinus Therapeutics, Inc., priority 2020, published 2021).

C[C@@H]1C[C@H]2[C@@H]3C[C@H](F)C4=CC(=O)C=C[C@]4(C)[C@@]3(F)[C@@H](O)C[C@]2(C)[C@@]1(O)C(=O)SCF [Fluticasone]
gastrointestinal absorption (compared with other corticosteroids): exceptionally low | drug inactivated by 1st pass hepatic metabolism (into a single inactive metabolite, after gastrointestinal absorption): 99%
